In patent US20250340575A1, “4-AMINOPYRROLO[2,1-F][1,2,4]TRIAZINES AND PREPARATION AND USES THEREOF” (Biosplice Therapeutics, Inc., priority 2024, published 2025):
pIC50: −log10 of the molar value.

Target: recombinant DYRK1A kinase (Homo sapiens, UniProt Q13627)
Experiment: DYRK1A kinase assay (Ser/Thr 18 peptide Z-lyte FRET)
Assay type: biochemical
Settings: DYRK1A 0.25 μg/mL, ATP 15 μM, Ser/Thr peptide 18 4 μM, one hour at room temperature, 11-point dose-response from 10 μM
Protocol: Representative compounds were screened using the assay procedure for DYRK1A kinase activity as described below.
Each compound was dissolved in DMSO as a 10 mM stock and used to prepare compound source plates. Serial dilution (1:3, 11-point dose-response curves from 10 μM to 0.00016 μM) and compound transfer was performed using the ECHO 550 (Labcyte, Sunnyvale, CA) into 1536-well black-walled round bottom plates (Corning).
The DYRK1A kinase assay was run using the Ser/Thr 18 peptide Z-lyte assay kit according to manufacturer's instructions (Life Technologies—a Division of Thermo-Fisher). This is a non-radioactive assay using fluorescence resonance energy transfer (FRET) between coumarin and fluorescein to detect kinase activity which is represented as a ratio of coumarin emission/fluorescein emission.
Briefly, recombinant DYRK1A kinase, ATP and Ser/Thr peptide 18 were prepared in 1× Kinase buffer to final concentrations of 0.25 μg/mL, 15 μM, and 4 μM respectively. The mixture was allowed to incubate with the representative compounds for one hour at room temperature. All reactions were performed in duplicate. Unphosphorylated (“0% Control”) and phosphorylated (“100% control”) forms of Ser/Thr 18 served as control reactions. Additionally, an 11-point dose-response curve of Staurosporine (1 uM top) was run to serve as a positive compound control.
After incubation, Development Reagent A was diluted in Development Buffer then added to the reaction and allowed to further incubate for one hour at room temperature. The plate was read at Ex 400 Em 455 to detect the coumarin signal and Ex 400 Em 520 to measure the signal (EnVision Multilabel Plate Reader, PerkinElmer).
The Emission ratio (Em) was calculated as a ratio of the coumarin (C) emission signal (at 445 nm)/Fluorescein (F) emission signal (at 520 nm). The percent phosphorylation was then calculated using the following formula: [1−((Em ratio×F100%)−C100%)/((C0%−C100%)+(Em ratio×(F100%−F0%)))]. Dose-response curves were generated, and inhibitory concentration (IC50) values were calculated using non-linear regression curve fit in the Dotmatics' Studies Software (Bishops Stortford, UK).

| SMILES | pIC50 |
| --- | --- |
| C[C@]1(O)CC[C@H](Nc2nc(N)c3c(-c4ccc5ncn(CC(F)(F)F)c5n4)ccn3n2)CC1 [Compound 123, (1r,4r)-4-((4-Amino-5-(3-(2,2,2-trifluoroethyl)-3H-imidazo[4,5-b]pyridin-5-yl)pyrrolo[2,1-f][1,2,4]triazin-2-yl)amino)-1-methylcyclohexan-1-ol] | 8.72 |
| CN1CC[C@H](Nc2nc(N)c3c(-c4ccc5ncn(CC(F)(F)F)c5n4)ccn3n2)[C@H](F)C1 [Compound 125, N^2-((3R,4S)-3-Fluoro-1-methylpiperidin-4-yl)-5-(3-(2,2,2-trifluoroethyl)-3H-imidazo[4,5-b]pyridin-5-yl)pyrrolo[2,1-f][1,2,4]triazine-2,4-diamine] | 8.77 |
| COCCN1CC[C@H](Nc2nc(N)c3c(-c4ccc5ncn(CC(F)(F)F)c5n4)ccn3n2)[C@H](F)C1 [Compound 126, N^2-((3R,4S)-3-Fluoro-1-(2-methoxyethyl)piperidin-4-yl)-5-(3-(2,2,2-trifluoroethyl)-3H-imidazo[4,5-b]pyridin-5-yl)pyrrolo[2,1-f][1,2,4]triazine-2,4-diamine] | 8.89 |
| CC(=O)N1CC[C@H](Nc2nc(N)c3c(-c4ccc5ncn(CC(F)(F)F)c5n4)ccn3n2)[C@H](F)C1 [Compound 127, 1-((3R,4S)-4-((4-Amino-5-(3-(2,2,2-trifluoroethyl)-3H-imidazo[4,5-b]pyridin-5-yl)pyrrolo[2,1-f][1,2,4]triazin-2-yl)amino)-3-fluoropiperidin-1-yl)ethan-1-one] | 8.82 |
| Nc1nc(N[C@@H]2CCN(C3COC3)C[C@@H]2F)nn2ccc(-c3ccc4ncn(CC(F)(F)F)c4n3)c12 [Compound 128, N^2-((3S,4R)-3-Fluoro-1-(oxetan-3-yl)piperidin-4-yl)-5-(3-(2,2,2-trifluoroethyl)-3H-imidazo[4,5-b]pyridin-5-yl)pyrrolo[2,1-f][1,2,4]triazine-2,4-diamine] | 8.85 |
| Nc1nc(N[C@H]2CCN(C3COC3)C[C@H]2F)nn2ccc(-c3ccc4ncn(CC(F)(F)F)c4n3)c12 [Compound 129, N^2-((3R,4S)-3-Fluoro-1-(oxetan-3-yl)piperidin-4-yl)-5-(3-(2,2,2-trifluoroethyl)-3H-imidazo[4,5-b]pyridin-5-yl)pyrrolo[2,1-f][1,2,4]triazine-2,4-diamine] | 8.85 |

These reach a higher pIC50. Values come first.

| pIC50 | SMILES |
| --- | --- |
| 8.96 | Nc1nc(N[C@@H]2CCN(C3COC3)C[C@@H]2F)nn2ccc(-c3ccc4ncn(CC(F)F)c4n3)c12 [Compound 122, 5-(3-(2,2-Difluoroethyl)-3H-imidazo[4,5-b]pyridin-5-yl)-N^2-((3S,4R)-3-fluoro-1-(oxetan-3-yl)piperidin-4-yl)pyrrolo[2,1-f][1,2,4]triazine-2,4-diamine] |
| 9.00 | CN1C[C@@H](Nc2nc(N)c3c(-c4ccc5ncn(CC(F)(F)F)c5n4)ccn3n2)C(F)(F)C1 [Compound 124, (R)—N^2-(4,4-Difluoro-1-methylpyrrolidin-3-yl)-5-(3-(2,2,2-trifluoroethyl)-3H-imidazo[4,5-b]pyridin-5-yl)pyrrolo[2,1-f][1,2,4]triazine-2,4-diamine] |
| 9.10 | COCCN1CC[C@H](Nc2nc(N)c3c(-c4ccc5ncn(CC(F)F)c5n4)ccn3n2)[C@H](F)C1 [Compound 121, 5-(3-(2,2-difluoroethyl)-3H-imidazo[4,5-b]pyridin-5-yl)-N^2-((3R,4S)-3-fluoro-1-(2-methoxyethyl)piperidin-4-yl)pyrrolo[2,1-f][1,2,4]triazine-2,4-diamine] |
| 9.15 | CN1CC[C@H](Nc2nc(N)c3c(-c4ccc5ncn(CC(F)F)c5n4)ccn3n2)[C@H](F)C1 [Compound 120, 5-(3-(2,2-Difluoroethyl)-3H-imidazo[4,5-b]pyridin-5-yl)-N^2-((3R,4S)-3-fluoro-1-methylpiperidin-4-yl)pyrrolo[2,1-f][1,2,4]triazine-2,4-diamine] |
